The values below come from patent US20250288576A1, “SPECIFIC TETRADENTATE COPPER CHELATORS AS ANTICANCER AGENTS” (Guangdong University of Technology, priority 2024, published 2025).

Series [1] deals with hepatocellular carcinoma HepG2. Description: MTT cell viability assay, HepG2. Type of series: cell-based, human. The settings on record: 48 h incubation, mean ± SD of at least three experiments. The procedure: (§1) The cytotoxicity of several compounds from the TDMQ series, especially TDMQ20, was evaluated on several human cancer cell lines. The clinically used anticancer drug 5-fluorouracil (5-FU) was used as comparator.
(§2) The targeted human cancer lines were 1) the metastatic melanoma A375, 2) the non-small cell lung adenocarcinoma A549, 3) the melanoma COLO-829, 4) the cervical cancer HeLa, 5) the hepatocellular carcinoma HepG2. The human immortalized keratinocyte cell line HaCaT was used as non-cancer reference cell line.
(§3) The MTT test was used to measure the cell viability. In this test, the applied colorless tetrazolium salt is reduced by mitochondrial succinate dehydrogenase, thus producing the violet formazan derivative that is quantified by UV-visible spectrometry at 570 nm.
A general note: Formazan colour is commonly taken as a measure of viable cells.

In series [2] the test system is immortalized keratinocyte cell line HaCaT. Description: MTT cell viability assay, HaCaT (non-cancer reference). The settings on record: 48 h incubation, non-cancer cells, mean ± SD of at least three experiments. In kind it is cell-based, human. As for the experimental part:
as §1, §2, §3

Another series concerns melanoma COLO-829. Description: MTT cell viability assay, COLO-829. Type of series: cell-based. Particulars: Homo sapiens, 48 h incubation, mean ± SD of at least three experiments. The procedure: as §1, §2, §3
The test system of a further series is metastatic melanoma A375. The series is described as follows: MTT cell viability assay, A375. In kind it is cell-based. The settings on record: Homo sapiens, A-375, 48 h incubation, mean ± SD of at least three experiments. The procedure: as §1, §2, §3
The test system of series [3] is non-small cell lung adenocarcinoma A549. Description: MTT cell viability assay, A549. In kind it is cell-based, human. The settings on record: for IC50: MTT, 48 h incubation, mean ± SD of at least three experiments. As for the experimental part:
as §1, §2, §3

The subject of the next series is cervical cancer HeLa. Description: MTT cell viability assay, HeLa. In kind it is cell-based, human. Particulars: 48 h incubation, mean ± SD of at least three experiments. The procedure:
as §1, §2, §3

For series [4], the system named is HeLa cells. The series is described as follows: Mitochondrial membrane potential, JC-1 staining flow cytometry. In kind it is cell-based, human. The settings on record: increasing concentration of TDMQ20, 48 h. The source says: FIG. 5. (A) Red/green fluorescence of HeLa cells treated with various concentrations of TDMQ20, and stained by JC-1, as an indirect measure of mitochondrial membrane potential (ΔΨm). Detection by flow cytometry. (B) Histograms presenting data of panel A as mean values of three independent experiments±SD; ****p<0.0001 vs. control.
The higher is the ΔΨm, the more elevated is the red shift of the dye (more aggregates formed); vice-versa, the lower is the ΔΨm of the mitochondria and the lower is the red to green ratio of the fluorescent marker (few aggregates formed). Therefore, the ratio of red/green fluorescence intensities is significant of mitochondrial integrity and function, and mitochondrial depolarization is indicated by a reduction in the red to green fluorescence intensity ratio.
This method was used to evaluate the mitochondrial membrane potential in HeLa cells incubated with various concentrations of TDMQ20 for 48 h, using staining with JC-1, and quantification by flow cytometry treated with the FlowJo v. X software.
On the technique in general: A flow cytometer gives signals particle by particle.

Series [5] deals with HeLa cells. The series is described as follows: Apoptosis, annexin V-FITC/PI flow cytometry. Type of series: cell-based, human. The settings on record: 48 h incubation. The procedure:
FIG. 3. Pro-apoptotic activity of TDMQ20 on HeLa cells after 48 h of incubation. (A) Quantitative analysis of necrotic cells (quadrant Q1), early apoptotic cells (quadrant Q2), advanced apoptotic cells (quadrant Q3) and non-apoptotic cells (quadrant Q4), using annexin V/propidium iodide (PI) staining and detection by flow cytometry. “Control” stands for untreated cells. (B) Histograms represent the proportion of apoptotic cells (Q2+Q3) within the flow cytometry charts; “ns” stands for p>0.05, ****p<0.0001 vs. control.
The pro-apoptotic activity of TDMQ20 in Hela cells was evaluated after 48 h of incubation with the drug, using the annexin V-FITC/PI method (FITC and PI stand for fluoresceine-5-isothiocyanate and propidium iodide, respectively). After staining, live cells show little or no fluorescence (annexin V−/PI−), early apoptosis cells show green fluorescence (annexin V+/PI−), late apoptosis cells and necrosis cells show red and green fluorescence (annexin V+/PI+). Cells were detected by flow cytometry. IDEAS software was used for acquisition of data and FlowJo v. X software was used for analysis of data. The total proportion of apoptotic cells, including early apoptosis (quadrants Q2) or late apoptosis (quadrants Q3) or necrosis (quadrants Q1), accounted for 51%, 15% and 9% when HeLa cells were treated with TDMQ20 at the concentration of […], 7.3 μM and 3.7 μM, respectively. So, TDMQ20 induced the apoptosis of HeLa cells in a dose-dependent manner.

For series [6], the system named is HeLa cells. Description: Wound healing assay (scratch assay). Type of series: cell-based, human. The settings on record: 14.5 μM, 24 h. As for the experimental part:
(A) Representative images of wounds formed by HeLa cells after treatment with TDMQ20. (B) Quantitative analysis of the wound closure upon treatment by TDMQ20. ****p<0.0001 vs. control. “Control” stands for untreated cells. Scale bar: 250 μm.
Wound healing assay (or “scratch assay”). The migratory ability of Hela cells in the presence of TDMQ20 was evaluated using the wound healing assay monitored by optical microscopy. Measurement after 24 h of the width of the “wound” created in a cell monolayer quantify the migration rate of the cells to close the wound. This method mimics cell migration during wound healing in vivo. For cancer cells, cell migration is involved in several processes such as tumor invasion, neo-angiogenesis and metastasis (X. Wang et al., BMC Pharmacol. Toxicol. 2019, 20, 4).

Series [7] has as its system HeLa cells. The series is described as follows: Colony-forming assay. Type of series: cell-based, human. The settings on record: 14th day after treatment. The procedure: (A) Representative images of colonies formed by HeLa cells at the 14th day after treatment with increasing concentrations of TDMQ20. (B) Quantitative analysis of this clonogenicity assay. **p<0.01, ****p<0.0001 vs. control. “Control” stands for untreated cells.
Colony-forming assay. The proliferation of HeLa cells exposed to various concentrations of TDMQ20 was evaluated at the 14th day after treatment.

The test system of series [8] is HeLa cells. Description: ROS production, DCF fluorescence (H2DCF-DA) flow cytometry. Type of series: cell-based, human. Particulars: 48 h incubation. As for the experimental part:
FIG. 4. ROS production induced by TDMQ20 in HeLa cells, detected by DCF fluorescence after 48 h of incubation. ***p<0.001, ****p<0.0001.
The most straightforward technique for measuring the production of […] in cells is the use of the cell permeable fluorescent probe 2′,7′-dichlorodihydrofluorescein diacetate (H2DCF-DA). In the presence of ROS, predominantly H2O2, H2DCF is rapidly oxidized to 2′,7′-dichlorofluorescein (DCF) which is highly fluorescent, with excitation and emission wavelengths of 498 and 522 nm, respectively. The stained cells were analyzed by flow cytometry and analyzed by the FlowJo v.Xsoftware.

As for `O=c1[nH]cc(F)c(=O)[nH]1` [5-FU, 5-fluorouracil, reference compound], the IC50 in [1] (Homo sapiens, HepG2, 48 h) came out at 46.7 ± 4.7 µM; in series [2] (Homo sapiens, HaCaT, 48 h), 30 µM; with melanoma COLO-829, 48.7 ± 0.7 µM; in the series on metastatic melanoma A375, 68.5 ± 4 µM; in series [3] (Homo sapiens, A549, 48 h), 72.6 ± 10 µM; in the series with cervical cancer HeLa (Homo sapiens, HeLa, 48 h) it was 20.3 ± 4.6 µM.
In the case of `CN(C)CCNCCc1ccc2c(Cl)cc(Cl)c(N)c2n1` [TDMQ20], the IC50 is 16.6 ± 4.7 µM in series [1]; 14 to 16 µM in series [1] (Homo sapiens, HepG2, 48 h); 41.1 ± 4.8 µM in series [2]; 41 µM in series [2] (Homo sapiens, HaCaT, 48 h); 40.2 ± 4.9 µM in the series with melanoma COLO-829; 38.1 ± 7 µM in the series with metastatic melanoma A375. In addition, the IC50 in [3] (Homo sapiens, A549, 48 h) was 14 to 16 µM; in series [3], 16.2 ± 2.9 µM; in the series on cervical cancer HeLa, 14.5 ± 0.8 µM; in the series with cervical cancer HeLa (Homo sapiens, HeLa, 48 h), 14 to 16 µM. Also, the “JC-1 red/green fluorescence ratio (mitochondrial transmembrane potential ΔΨm)” value with HeLa cells [4] is listed as “drastic decrease”. Moreover, the “Total proportion of apoptotic cells (early, late apoptosis, necrosis)” value with HeLa cells [5] (3.7 μM) stood at 9%; with HeLa cells [5] (7.3 μM), 15%; with HeLa cells [5] (14.5 μM) it was 51%. Further, in the series on HeLa cells [6], the “HeLa cell migration to close a wound” value was “significantly inhibited”. Besides, the “HeLa cells in colony-forming assay” value with HeLa cells [7] (TDMQ20 = 12 μM) is “not detectable”. Further, in the series on HeLa cells [7] (increasing drug concentration from 1.5 to 12 μM), the “Number of HeLa cells in cultures (colony-forming ability)” value is recorded as “drastically decreased”. In addition, the “Cytotoxic activity relative to the reference drug 5-FU” value in series [3] (lung adenocarcinoma A549 cells) is recorded as “four times higher”. Besides, the “Fluorescence of DCF, % of the control cells” value with HeLa cells [8] (3.7 μM) amounted to 125%; with HeLa cells [8] (7.3 μM) it was 138%; in the series with HeLa cells [8] (14.5 μM) it was 150%.

For orientation: IC50 means the concentration that gives 50% inhibition. A low value points to inhibition by little substance.
